Source: patent publication US5349127A, “Expression of herbicide metabolizing cytochromes P450” (priority 1992, dated 1994)

Columns and labels:
S. griseus PH3832 = test: Metabolism of 10001 by strains transformed with pPAT108 (Example 14); format: in vitro ADME, Streptomyces griseus; conditions: substrate 10001 120 ug/ml
Procedure: (§1) S. griseolus PH2003, S. griseus PH4001, S. ambofaciens PH4002, and S. lividans JI1326 were transformed with the plasmid pPAT108. The transformed S. griseolus strain, PH3826, was cultured for 24 hours in 150 mls of sporulation broth with 5 ug/ml thiostrepton. The transformed S. griseus strain, PH3832, and the transformed S. ambofaciens strain, PH3834, were cultured for 24 hours in 150 mls of trypticase soy broth with 5 ug/ml thiostrepton. The transformed S. lividans strain, PH3822, was similarly cultured in 150 mls of YEME broth with 5 ug/ml thiostrepton. Three hours before harvesting the cells, 50 mls of fresh medium of the same type with 5 ug/ml thiostrepton was added to each culture. The cells from each of the cultures were harvested by centrifugation, washed twice with 50 mMMOPS, pH7.2 and resuspended in five cell volumes of MOPS containing 0.2% glucose and 120 ug/ml of the sulfonylurea 10001. The cell suspensions were incubated at 30° C. with shaking and aliquots were removed at 0.5, 1, 2 and 4 hours. The supernatant of each aliquot was analyzed by HPLC and the concentration of the sulfonylurea compound 10001 and its metabolites 10002 and 10003 were determined.

S. griseolus PH3809 = test: Metabolism of 10001 by strains transformed with pCS325 (Example 15); format: in vitro ADME, Streptomyces griseolus; conditions: substrate 10001
Procedure: as §1
S. griseolus PH2003, S. griseus PH4001, S. ambofaciens PH4002, and S. lividans JI1326 were transformed with the plasmid pCS325. Cells of the transformed strains of S. griseolus PH3809, S. griseus PH3817, S. ambofaciens PH3818, and S. lividans PH3816, were grown and treated as described in Example 14, and the concentrations of the sulfonylurea compound 10001 and its metabolites 10002 and 10003 were determined.

[1] = test system: Tomato seedlings (Lycopersicon esculentum cv. Pixie); test: Tomato transplants in herbicide-treated soil after bacterial pretreatments (Example 18); format: in vivo; conditions: for Shoot Fresh Weight (mean of five plants): 22 days; for Shoot fresh weight in treatment C versus the other treatments: 32, 64 and 125 g ai/ha of 10001 or 16 and 32 g ai/ha of 10010
Procedure: One liter cultures of S. griseolus ATCC 11796, S. lividans pCAO200, S. lividans pCAO200-#9-SU1-FeS-B or S. lividans pCAO200-#12-SU1 were grown in YEME medium (sporulation broth for the S. griseolus culture) at 30° C. until the cultures were in late log phase of growth and the absorbance of each culture in a spectrophotometer at a wavelength of 600 nm was between 1.0 and 1.3. Tomato seedlings (Lycopersicon esculentum cv. "Pixie") were seeded directly into soiless media, Oasis Wedges® (Smithers-Oasis, Kent, Ohio), fertilized with 500 ppm Peter's® fertilizer (20:19:18); and 300 ppm of iron was added weekly. As the tomato plants develop, roots ramify through the Oasis Wedges®. The tomato plants were transplanted to pots when they were 4 inches tall as follows.
Five inch standard round pots (without holes) were filled with Sassafras sandy loam (ph 6.7, 0.8% OM) and a single Oasis cube and then treated preemergence with either Classic® (10001) 25 DF (16, 32, 64, 125 and 250 grams active ingredient/hectare [g ai/ha]) or Oust® (10010) 75 DF at rates of 4, 8, 16, 32 and 64 g ai/ha), both herbicides available from E. I. du Pont de Nemours and Company, Wilmington, Del. The oasis cube was then removed and replaced by a transplant tomato dipped in either the cultures described above of S. griseolus ATCC 11796 (treatment A), S. lividans pCAO200 (treatment B), S. lividans pCAO200-#9-SU1-FeS-B (treatment C), S. lividans pCAO200-#12-SU1 (treatment D) or into water (treatment E). Five transplants were tested for each treatment at each dosage rate. The pots were placed on a greenhouse bench for 22 days and watered twice daily, after which shoot fresh weights of treatments were determined. Roots of these treatments and controls were examined too. Plants, soil and pots treated with bacterial cultures were double bagged and disposed by incineration.

[2] = 16 g ai/ha, Pretreatment A (Streptomyces griseolus ATCC11796)
[3] = 16 g ai/ha, Pretreatment B (Streptomyces lividans pCAO200)
[4] = 16 g ai/ha, Pretreatment C (S. lividans pCAO200#9SU1-FeS-B)
[5] = 16 g ai/ha, Pretreatment D (S. lividans pCAO200#12SU1)
[6] = 16 g ai/ha, Pretreatment E (water)
[7] = 32 g ai/ha, Pretreatment A (Streptomyces griseolus ATCC11796)
[8] = 32 g ai/ha, Pretreatment B (Streptomyces lividans pCAO200)
[9] = 32 g ai/ha, Pretreatment C (S. lividans pCAO200#9SU1-FeS-B)
[10] = 32 g ai/ha, Pretreatment D (S. lividans pCAO200#12SU1)
[11] = 32 g ai/ha, Pretreatment E (water)
[12] = 64 g ai/ha, Pretreatment A (Streptomyces griseolus ATCC11796)
[13] = 64 g ai/ha, Pretreatment B (Streptomyces lividans pCAO200)
[14] = 64 g ai/ha, Pretreatment C (S. lividans pCAO200#9SU1-FeS-B)
[15] = 64 g ai/ha, Pretreatment D (S. lividans pCAO200#12SU1)
[16] = 64 g ai/ha, Pretreatment E (water)

| SMILES | concentration in supernatant (S. griseus PH3832; 0.5 h) [µM] | concentration in supernatant (S. griseus PH3832; 1.0 h) [µM] | concentration in supernatant (S. griseus PH3832; 2.0 h) [µM] | concentration in supernatant (S. griseus PH3832; 4.0 h) [µM] | concentration in supernatant (S. griseolus PH3809; 0.5 h) [µM] | concentration in supernatant (S. griseolus PH3809; 1.0 h) [µM] | concentration in supernatant (S. griseolus PH3809; 2.0 h) [µM] | concentration in supernatant (S. griseolus PH3809; 4.0 h) [µM] | Shoot Fresh Weight (mean of five plants) [1, 2] [grams] | Shoot Fresh Weight (mean of five plants) [1, 3] [grams] | Shoot Fresh Weight (mean of five plants) [1, 4] [grams] | Shoot Fresh Weight (mean of five plants) [1, 5] [grams] | Shoot Fresh Weight (mean of five plants) [1, 6] [grams] | Shoot fresh weight in treatment C versus the other treatments [1] | Shoot Fresh Weight (mean of five plants) [1, 7] [grams] | Shoot Fresh Weight (mean of five plants) [1, 8] [grams] | Shoot Fresh Weight (mean of five plants) [1, 9] [grams] | Shoot Fresh Weight (mean of five plants) [1, 10] [grams] | Shoot Fresh Weight (mean of five plants) [1, 11] [grams] | Shoot Fresh Weight (mean of five plants) [1, 12] [grams] | also measured |
| --- | --- | --- | --- | --- | --- | --- | --- | --- | --- | --- | --- | --- | --- | --- | --- | --- | --- | --- | --- | --- | --- |
| CCOC(=O)c1ccccc1S(=O)(=O)NC(=O)Nc1nc(Cl)cc(OC)n1 [compound 10001, N-[(4-chloro-6-methoxy-pyrimidin-2-yl)aminocarbonyl]-2-ethoxycarbonylbenzenesulfonamide] | 281 | 238 | 177 | 77 | 175 | 108 | 0 | 0 | 0.88 | 0.67 | 1.63 | 0.62 | 1.67 | 2-3 times greater | 0.74 | 0.47 | 1.62 | 0.82 | 1.07 | 0.21 | Shoot Fresh Weight (mean of five plants) [1, 13]: 0.53 grams; Shoot Fresh Weight (mean of five plants) [1, 14]: 1.24 grams; Shoot Fresh Weight (mean of five plants) [1, 15]: 0.47 grams; Shoot Fresh Weight (mean of five plants) [1, 16]: 0.46 grams; Shoot Fresh Weight (mean of five plants) ([1]; 125 g ai/ha, Pretreatment A (Streptomyces griseolus ATCC11796)): 0.49 grams; Shoot Fresh Weight (mean of five plants) ([1]; 125 g ai/ha, Pretreatment B (Streptomyces lividans pCAO200)): 0.38 grams; Shoot Fresh Weight (mean of five plants) ([1]; 125 g ai/ha, Pretreatment C (S. lividans pCAO200#9SU1-FeS-B)): 1.01 grams; Shoot Fresh Weight (mean of five plants) ([1]; 125 g ai/ha, Pretreatment D (S. lividans pCAO200#12SU1)): 0.35 grams; Shoot Fresh Weight (mean of five plants) ([1]; 125 g ai/ha, Pretreatment E (water)): 0.23 grams; Shoot Fresh Weight (mean of five plants) ([1]; 250 g ai/ha, Pretreatment A (Streptomyces griseolus ATCC11796)): 0.44 grams; Shoot Fresh Weight (mean of five plants) ([1]; 250 g ai/ha, Pretreatment B (Streptomyces lividans pCAO200)): 0.25 grams; Shoot Fresh Weight (mean of five plants) ([1]; 250 g ai/ha, Pretreatment C (S. lividans pCAO200#9SU1-FeS-B)): 0.55 grams; Shoot Fresh Weight (mean of five plants) ([1]; 250 g ai/ha, Pretreatment D (S. lividans pCAO200#12SU1)): 0.26 grams; Shoot Fresh Weight (mean of five plants) ([1]; 250 g ai/ha, Pretreatment E (water)): 0.21 grams |
| COc1cc(Cl)nc(NC(=O)NS(=O)(=O)c2ccccc2C(=O)O)n1 [compound 10003, N-[(4-chloro-6-methoxy-pyrimidin-2-yol)aminocarbonyl]-2-carboxybenzenesulfonamide] | 9 | 26 | 46 | 80 | 6 | 16 | 24 | 25 | – | – | – | – | – | – | – | – | – | – | – | – | – |
| COC(=O)c1ccccc1S(=O)(=O)NC(=O)Nc1nc(C)cc(C)n1 [compound 10010, N-[(4,6-dimethylpyrimidin-2-yl)aminocarbonyl]-2-methoxycarbonylbenzenesulfonamide] | – | – | – | – | – | – | – | – | 0.32 | 0.65 | 0.98 | 0.56 | 0.39 | 2-3 times greater | 0.33 | 0.42 | 1.01 | 0.62 | 0.28 | 0.30 | Shoot Fresh Weight (mean of five plants) ([1]; 4 g ai/ha, Pretreatment A (Streptomyces griseolus ATCC11796)): 1.16 grams; Shoot Fresh Weight (mean of five plants) ([1]; 4 g ai/ha, Pretreatment B (Streptomyces lividans pCAO200)): 0.73 grams; Shoot Fresh Weight (mean of five plants) ([1]; 4 g ai/ha, Pretreatment C (S. lividans pCAO200#9SU1-FeS-B)): 0.88 grams; Shoot Fresh Weight (mean of five plants) ([1]; 4 g ai/ha, Pretreatment D (S. lividans pCAO200#12SU1)): 0.88 grams; Shoot Fresh Weight (mean of five plants) ([1]; 4 g ai/ha, Pretreatment E (water)): 2.00 grams; Shoot Fresh Weight (mean of five plants) ([1]; 8 g ai/ha, Pretreatment A (Streptomyces griseolus ATCC11796)): 0.58 grams; Shoot Fresh Weight (mean of five plants) ([1]; 8 g ai/ha, Pretreatment B (Streptomyces lividans pCAO200)): 0.69 grams; Shoot Fresh Weight (mean of five plants) ([1]; 8 g ai/ha, Pretreatment C (S. lividans pCAO200#9SU1-FeS-B)): 1.02 grams; Shoot Fresh Weight (mean of five plants) ([1]; 8 g ai/ha, Pretreatment D (S. lividans pCAO200#12SU1)): 0.75 grams; Shoot Fresh Weight (mean of five plants) ([1]; 8 g ai/ha, Pretreatment E (water)): 0.65 grams; Shoot Fresh Weight (mean of five plants) [1, 13]: 0.39 grams; Shoot Fresh Weight (mean of five plants) [1, 14]: 0.46 grams; Shoot Fresh Weight (mean of five plants) [1, 15]: 0.29 grams; Shoot Fresh Weight (mean of five plants) [1, 16]: 0.34 grams |
